Read-outs that look alike come from different tables or passages of the source.
Assays:
Format in all cases: cell-based, human
[1] = tested on: AsPC-1 cells; assay: 3D cell proliferation assay (CellTiter Glo-3D), AsPC-1
Method: (§1) The cells were digested with trypsin (containing EDTA), collected in their respective low-serum complete media containing 2% FBS (for MIA Paca-2 cell culture: DMEM + 2% FBS + 0.5% Horse serum + 1% PS), and counted. After the cell density was adjusted as required, 200 MIA PaCa-2 cells, 800 AsPC-1 cells, 800 NCI-H441 cells, or 400 NCI-H1975 cells per well were seeded into a 384-well cell culture plate, with the volume of the medium in each well being 45 µL. The cell culture plate was incubated in an incubator at 37 °C with 5% CO2 overnight. […] On the day after cell seeding, 5 µL of the 10× compound stock solution was added to each cell culture well. […] In addition to the compound-treated wells described above, cell-containing DMSO control wells (with 5 µL of the complete medium containing 1% DMSO added to each well) and cell-free medium control wells (containing 50 µL of the complete medium with 2% FBS) were also set. The culture plate was incubated in an incubator at 37 °C with 5% CO2 for another 5 days, and then 30 µL of CellTiter-Glo working solution was added to each well. The mixture was well mixed, incubated for 30 min, left to stand at room temperature for 30 min, and then transferred to a white-bottomed, opaque 384-well assay plate at 40 µL/well. […] Using an XLfit software, the IR (%) values were plotted against the logarithm of the compound concentrations, and the dose-response curves were fitted using the four-parameter method to calculate the IC50 values.

[2] = tested on: AsPC-1 p-ERK; assay: Cell p-ERK assay (HTRF), AsPC-1 cells
Method: (§2) The cells were digested with trypsin (containing EDTA), collected in their corresponding complete media, and counted. The density of the cell suspensions was adjusted with their corresponding complete media, and 10000 AsPC-1 cells or 20000 NCI-H441 cells per well were seeded into a 96-well cell culture plate, with the volume of the medium in each well being 80 µL. The cell culture plate was incubated in an incubator at 37 °C with 5% CO2 overnight. […] On the day after cell seeding, 20 µL of the 5× compound stock solution was added to each cell culture well. […] In addition to the compound-treated wells described above, cell-containing DMSO control wells were also set. A complete medium containing 0.5% DMSO was added at 20 µL/well. After the mixture was well mixed, the culture plate was incubated in the incubator at 37 °C with 5% CO2 for another 3 h. The medium was then removed from the culture wells, and 50 µL of cell lysis buffer (from Advance ERK phospho-T202/Y204 kit) was added to each well. The mixture was well mixed and incubated for 30 min. Then, 16 µL of the mixture was transferred to a white-bottomed, opaque 96-well assay plate, and separately, 16 µL of cell lysis buffer was added to additional wells (serving as blank wells) in the assay plate. After the transfer was completed, 4 µL of p-ERK HTRF antibody mixture (from Advance ERK phospho-T202/Y204 kit) was added to each well of the assay plate, followed by a 4-hour incubation. […] Using an XLfit software, the IR (%) values were plotted against the logarithm of the compound concentrations, and the dose-response curves were fitted using the four-parameter method to calculate the IC50 values.

[3] = tested on: NCI-H441 cells; assay: 3D cell proliferation assay (CellTiter Glo-3D), NCI-H441; conditions: NCI-H441 cells (KRAS G12V), 2% FBS, 5 days, read-out: H441 AP IC50
Method: as §1

[4] = tested on: H441 p-ERK; assay: Cell p-ERK assay (HTRF), NCI-H441 cells; conditions: NCI-H441 cells (KRAS G12V), 3 h incubation
Method: as §2

[5] = Homo sapiens, ASPC1, 120 h, read-out: AsPC-1 AP IC50(nM)
[6] = Homo sapiens, ASPC1, 3 h, read-out: AsPC-1 p-ERK IC50(nM)

Row | IC50 [1, 5] [nM] | IC50 [2, 6] [nM] | IC50 ([3]; Homo sapiens, 120 h) [nM] | IC50 ([4]; Homo sapiens) [nM] | IC50 ([1]; AsPC-1 cells (KRAS G12D), 3D, 2% FBS, 5 days, read-out: AsPC-1 AP IC50) [nM] | IC50 ([2]; AsPC-1 cells (KRAS G12D), 3 h incubation, read-out: AsPC-1 p-ERK IC50) [nM] | IC50 [3] [nM] | IC50 [4] [nM] | Structure (SMILES) | IC50 ([1]; Homo sapiens, ASPC1, 120 h, AsPC-1 cells (KRAS G12D), 3D, 2% FBS, 5 days, read-out: AsPC-1 AP IC50) [nM] | IC50 ([2]; Homo sapiens, ASPC1, AsPC-1 cells (KRAS G12D), 3 h incubation, read-out: AsPC-1 p-ERK IC50) [nM]
1 | 0.37 | 0.42 | 0.4 | 0.48 | – | – | – | – | COCCn1c(-c2cc(C#CCN3CCC(C#N)(CO)CC3)cnc2[C@H](C)OC)c2c3cc(ccc31)-c1csc(n1)C[C@H](NC(=O)[C@H]1[C@@H]3COC[C@@H]31)C(=O)N1CCC[C@H](N1)C(=O)OCC(C)(C)C2 (atropisomer, axis not shown) [Compound Z28, (1R,5S,6r)-N-((6^3S,4S,Z)-1^2-(5-(3-(4-cyano-4-hydroxymethylpiperidin-1-yl)prop-1-yn-1-yl)-2-((S)-1-methoxyethyl)pyridin-3-yl)-1^1-(methoxyethyl)-10,10-dimethyl-5,7-dioxo-6^1,6^2,6^3,6^4,6^5,6^6-hexahydro-1^1H-8-oxa-2(4,2)-thiazola-1(5,3)-indola-6(1,3)-pyridazinacycloundecaphane-4-yl)-3-oxabicyclo[3.1.0]hexane-6-carboxamide] | – | –
2 | – | – | – | – | 0.18 | 0.59 | 0.28 | 0.72 | CO[C@@H](C)c1ncc(C#CCN2CCS(=O)(=O)CC2)cc1-c1c2c3cc(ccc3n1CC(C)O)-c1csc(n1)C[C@H](NC(=O)[C@H]1[C@H](C)[C@@H]1C)C(=O)N1CCC[C@H](N1)C(=O)OCC(C)(C)C2 (atropisomer, axis not shown; (Ra)) [Compound Z3, (1r,2R,3S)-N-((6^3S,4S,Z)-(Ra)-1^2-(5-(3-(1,1-dioxidothiomorpholino)prop-1-yn-1-yl)-2-((S)-1-methoxyethyl)pyridin-3-yl)-1^1-(2-hydroxypropyl)-10,10-dimethyl-5,7-dioxo-6,6',6',6^46^5,6^6-hexahydro-1^1H-8-oxa-2(4,2)-thiazola-1(5,3)-indola-6(1,3)-pyridazinacycloundecaphane-4-yl)-2,3-dimethylcyclopropane-1-carboxamide] | – | –
3 | 0.52 | 0.51 | 0.32 | 0.5 | – | – | – | – | CCn1c(-c2cc(C#CCN3CCS(=O)(=O)CC3)cnc2[C@H](C)OC)c2c3cc(ccc31)-c1csc(n1)C[C@H](NC(=O)[C@@H]1[C@@H](C)[C@H]1CO)C(=O)N1CCC[C@H](N1)C(=O)OCC(C)(C)C2 (atropisomer, axis not shown; (Ra)) [Compound Z7-1, (1R,2R,3S)-N-((6^3S,4S,Z)-(Ra)-1^2-(5-(3-(1,1-dioxidothiomorpholino)prop-1-yn-1-yl)-2-((S)-1-methoxyethyl)pyridin-3-yl)-1^1-ethyl-10,10-dimethyl-5,7-dioxo-6^1,6^2,6^3,6^4,6^5,6^6-hexahydro-1^1H-8-oxa-2(4,2)-thiazola-1(5,3)-indola-6(1,3)-pyridazinacycloundecaphane-4-yl)-2-(hydroxymethyl)-3-methylcyclopropane-1-carboxamide] | – | –
4 | 0.56 | 0.42 | 0.35 | 0.45 | – | – | – | – | CCn1c(-c2cc(C#CCN3CCS(=O)(=O)CC3)cnc2[C@H](C)OC)c2c3cc(ccc31)-c1csc(n1)C[C@H](NC(=O)[C@H]1[C@H](C)[C@@H]1CO)C(=O)N1CCC[C@H](N1)C(=O)OCC(C)(C)C2 (atropisomer, axis not shown; (Ra)) [Compound Z7-2, (1S,2S,3R)-N-((6^3S,4S,Z)-(Ra)-1^2-(5-(3-(1,1-dioxidothiomorpholino)prop-1-yn-1-yl)-2-((S)-1-methoxyethyl)pyridin-3-yl)-1^1-ethyl-10,10-dimethyl-5,7-dioxo-6^1,6^2,6^3,6^4,6^5,6^6-hexahydro-1^1H-8-oxa-2(4,2)-thiazola-1(5,3)-indola-6(1,3)-pyridazinacycloundecaphane-4-yl)-2-(hydroxymethyl)-3-methylcyclopropane-1-carboxamide] | – | –
5 | 0.16 | 0.12 | 0.13 | 0.18 | – | – | – | – | CCn1c(-c2cc(C#CCN3CCCN(C(=O)CO)CC3)cnc2[C@H](C)OC)c2c3cc(ccc31)-c1csc(n1)C[C@H](NC(=O)[C@H]1[C@H](C)[C@@H]1C)C(=O)N1CCC[C@H](N1)C(=O)OCC(C)(C)C2 (atropisomer, axis not shown; (Ra)) [Compound Z10, (1r,2R,3S)-N-((6^3S,4S,Z)-1^1-ethyl-(Ra)-1^2-(5-(3-(4-(2-hydroxyacetyl)-1,4-diazepin-1-yl)prop-1-yn-1-yl)-2-((S)-1-methoxyethyl)pyridin-3-yl)-10,10-dimethyl-5,7-dioxo-6^1,6^2,6^3,6^4,6^5,6^6-hexahydro-1^1H-8-oxa-2(4,2)-thiazola-1(5,3)-indola-6(1,3)-pyridazinacycloundecaphane-4-yl)-2,3-dimethylcyclopropane-1-carboxamide] | – | –
6 | 0.31 | 0.42 | 0.35 | 0.24 | – | – | – | – | CCn1c(-c2cc(C#CCN3CCS(=O)(=O)CC3)cnc2[C@H](C)OC)c2c3cc(ccc31)-c1csc(n1)C[C@H](NC(=O)[C@@H](NC)C1CCCC1)C(=O)N1CCC[C@H](N1)C(=O)OCC(C)(C)C2 (atropisomer, axis not shown; (Ra)) [Compound Z15, (2S)-2-methylamino-2-cyclopentyl-N-((6^3S,4S,Z)-(Ra)-1^2-(5-(3-(1,1-dioxidothiomorpholino)prop-1-yn-1-yl)-2-((S)-1-methoxyethyl)pyridin-3-yl)-1^1-ethyl-10,10-dimethyl-5,7-dioxo-6^1,6^2,6^3,6^4,6^5,6^6-hexahydro-1^1H-8-oxa-2(4,2)-thiazola-1(5,3)-indola-6(1,3)-pyridazinacycloundecaphane-4-yl)acetamide] | – | –
7 | 0.46 | 0.26 | 0.35 | 0.22 | – | – | – | – | CCn1c(-c2cc(C#CCN3CCS(=O)(=O)CC3)cnc2[C@H](C)OC)c2c3cc(ccc31)-c1csc(n1)C[C@H](NC(=O)[C@@H](NC)C1CCC1)C(=O)N1CCC[C@H](N1)C(=O)OCC(C)(C)C2 (atropisomer, axis not shown; (Ra)) [Compound Z17, (2S)-2-methylamino-2-cyclobutyl-N-((6^3S,4S,Z)-(Ra)-1^2-(5-(3-(1,1-dioxidothiomorpholino)prop-1-yn-1-yl)-2-((S)-1-methoxyethyl)pyridin-3-yl)-1^1-ethyl-10,10-dimethyl-5,7-dioxo-6^1,6^2,6^3,6^4,6^5,6^6-hexahydro-1^1H-8-oxa-2(4,2)-thiazola-1(5,3)-indola-6(1,3)-pyridazinacycloundecaphane-4-yl)acetamide] | – | –
8 | 4.87 | – | 3 | 3.04 | – | – | – | – | CCn1c(-c2cc(C#CCN3CCCOCC3)cnc2[C@H](C)OC)c2c3cc(ccc31)-c1csc(n1)C[C@H](NC1=NOC(C)(C3CC3)C1)C(=O)N1CCC[C@H](N1)C(=O)OCC(C)(C)C2 (atropisomer, axis not shown; (Ra)) [Compound Z281, (6^3S,4S,Z)-(Ra)-1^2-(5-(3-(1,4-oxazepan-4-yl)prop-1-yn-1-yl)-2-((S)-1-methoxyethyl)pyridin-3-yl)-1^1-ethyl-10,10-dimethyl-4-((5-cyclopropyl-5-methyl-4,5-dihydroisoxazol-3-yl)amino)-6^1,6^2,6^3,6^4,6^5,6^6-hexahydro-1^1H-8-oxa-2(4,2)-thiazola-1(5,3)-indola-6(1,3)-pyridazinacycloundecaphane-5,7-dione] | – | –

Row | Structure (SMILES) | IC50 [1, 5] [nM] | IC50 [2, 6] [nM] | IC50 ([3]; Homo sapiens, 120 h) [nM] | IC50 ([4]; Homo sapiens) [nM] | IC50 ([1]; AsPC-1 cells (KRAS G12D), 3D, 2% FBS, 5 days, read-out: AsPC-1 AP IC50) [nM] | IC50 ([2]; AsPC-1 cells (KRAS G12D), 3 h incubation, read-out: AsPC-1 p-ERK IC50) [nM] | IC50 [3] [nM] | IC50 [4] [nM] | IC50 ([1]; Homo sapiens, ASPC1, 120 h, AsPC-1 cells (KRAS G12D), 3D, 2% FBS, 5 days, read-out: AsPC-1 AP IC50) [nM] | IC50 ([2]; Homo sapiens, ASPC1, AsPC-1 cells (KRAS G12D), 3 h incubation, read-out: AsPC-1 p-ERK IC50) [nM]
9 | CCn1c(-c2cc(C#CCN3CCC(C(=O)NCCO)CC3)cnc2[C@H](C)OC)c2c3cc(ccc31)-c1csc(n1)C[C@H](NC(=O)[C@H]1[C@H](C)[C@@H]1C)C(=O)N1CCC[C@H](N1)C(=O)OCC(C)(C)C2 (atropisomer, axis not shown; (Ra)) [Compound Z12] | – | – | 0.21 | 0.15 | – | – | – | – | 0.44 | 0.36

Source: EP4775582A1, “MACROCYCLIC COMPOUND AND ANTIBODY-DRUG CONJUGATE THEREOF” (Genfleet Therapeutics (Shanghai) Inc., priority 2023, dated 2025)
